According to ChEMBL document CHEMBL5728999, “Sulfoximine glycosidase inhibitors” (2022):
pIC50: −log10 of the molar value.

Biological target: T1, Protein O-GlcNAcase (Homo sapiens, UniProt O60502)
T1 sequence (O60502 whole entry): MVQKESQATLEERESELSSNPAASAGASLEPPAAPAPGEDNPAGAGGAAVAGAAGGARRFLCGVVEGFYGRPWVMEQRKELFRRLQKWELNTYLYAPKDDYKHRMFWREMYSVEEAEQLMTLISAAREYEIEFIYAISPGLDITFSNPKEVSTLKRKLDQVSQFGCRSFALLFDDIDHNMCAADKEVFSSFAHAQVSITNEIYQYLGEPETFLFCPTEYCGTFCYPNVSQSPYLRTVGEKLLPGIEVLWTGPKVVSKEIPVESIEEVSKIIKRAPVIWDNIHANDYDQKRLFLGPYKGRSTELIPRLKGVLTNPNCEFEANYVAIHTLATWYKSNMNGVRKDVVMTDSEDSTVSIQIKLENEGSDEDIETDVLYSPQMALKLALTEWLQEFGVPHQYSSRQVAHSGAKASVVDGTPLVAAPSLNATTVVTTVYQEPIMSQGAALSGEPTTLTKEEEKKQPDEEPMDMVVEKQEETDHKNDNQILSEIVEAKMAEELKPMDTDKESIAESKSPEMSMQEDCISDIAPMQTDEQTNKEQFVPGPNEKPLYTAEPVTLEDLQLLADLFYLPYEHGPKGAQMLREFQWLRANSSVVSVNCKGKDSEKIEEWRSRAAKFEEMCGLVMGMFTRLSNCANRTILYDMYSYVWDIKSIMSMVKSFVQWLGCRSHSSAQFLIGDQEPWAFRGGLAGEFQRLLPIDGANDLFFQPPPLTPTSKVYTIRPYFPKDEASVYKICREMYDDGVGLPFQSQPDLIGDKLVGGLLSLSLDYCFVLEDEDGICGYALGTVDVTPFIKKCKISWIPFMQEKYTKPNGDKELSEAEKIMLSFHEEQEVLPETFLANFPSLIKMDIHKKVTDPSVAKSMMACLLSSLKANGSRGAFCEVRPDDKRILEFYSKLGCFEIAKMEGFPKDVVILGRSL
Test: Human O-GlcNAcase enzyme inhibition assay: 5 μl of the appropriate concentration of a solution of inhibitor in McIlvaine's Buffer (pH 6.5) in 2% DMSO (for a dose response curve calculation) is added into each well of a 384-well plate (Greiner, 781900). Then, 20 nM of His-Tagged hOGA and 10 μM of FL-GlcNAc (Fluorescein mono-beta-D-(2-deoxy-2-N-acetyl) glucopyranoside; Marker Gene Technologies Inc, M1485) were added to the 384-well plate for a final volume of 20 μl. After incubation for 60 min at room temperature, the reaction was terminated by the addition of 10 μL of stop buffer (200 mM glycine, pH 10.75).

pIC50: > 7.30
Structure (SMILES): CC(c1ccc2c(c1)OCC2)N1CCN(c2ncnc3c2CS(=N)(=O)C3)CC1 (stereo unspecified)
